Patent publication EP1171107B1, “USE OF A PHARMACEUTICAL COMPOSITION IN THE MANUFACTURE OF A MEDICAMENT FOR THE TREATMENT OF PATHOLOGICAL CONDITIONS OF THE EYE CAUSED BY BACTERIA, VIRUSES, FUNGI, YEASTS AND PROTOZOA” (Dr. GERHARD MANN chem.-pharm. Fabrik GmbH, priority 1999, dated 2000)

Tests used:
Type in all cases: cell-based
P.aeruginosa [1] = experiment: Qualitative examination: enrichment of the inoculated test preparation in broth
Text: (§1) Escherichia (E.coli) Staphylococcus (S.aureus) Streptococcus (Sc.) Pneumoniae Pseudomonas (P.aeruginosa) Staphylococcus (S. epidermidis) Haemophilus (H. influenzae)
(§2) Die verschiedenen Testkeime wurde jeweils aus einem Lyophilisat in NaCl-Peptonpuffer homogenisiert und auf Caseinpepton-Sojymehlpepton. (Caso-) Agar (Fa. bioMérieux; Art. Nr. 43019) bez. Kochblut-Agar (Fa. bioMérieux; Art. Nr. 43109) subkultiviert. Die Teststämme wurden vor Versuchsbeginn durch Erstellen eines biochemischen Profils mittels ATB/Vitek-System (Fa. bioMérieux, Nürtingen) auf Reinheit und Identität überprüft.
(§3) Die verschiedenen Testsubstanzen a. bis j. wurden jeweils zu 5 ml in sterile Zentrifugenröhrchen abgefüllt und mit ca. 10^5 KBE^*/ml (* = koloniebildende Einheiten) der oben genannten Testkeime kontaminiert. Pro Substanz wurde für jeden Testkeim und jede zu prüfende Testzeit ein separater Ansatz angeimpft, d.h.10 Testsubstanzen zu jeweils 7 Testzeiten und 6 Testkeime (= insgesamt 502 Testansätze). Nach 2, 6, 8, 24, 32, 48 und 72 Stunden wurde dann der jeweilige Testansatz 10 Minuten bei 3000 rpm abzentrifugiert. Der Überstand wurde dekantiert und das Pellet in 5 ml NaCl Peptonpuffer aufgenommen und resuspendiert. Die Suspension wurde erneut 10 Minuten bei 3000 rpm abzentrifugiert und 5 ml NaCl-Peptonpuffer aufgenommen und mittels Vortex homogenisiert.
(§4) Jeweils 2 ml der Testansätze wurden in 20 ml Caso-Bouillon oder für H. influenzae, in Fildes-Medium der Firma Becton Dickinson, ARt. Nr. 0349-739, angereichert und ebenfalls maximal 4 Tage bei 33± 2°C bebrütet. Ein negatives Ergebnis der Anreicherung belegt die Elimination der inokulierten Keime.

P.aeruginosa [2] = experiment: Quantitative germ count (re-isolation, surface method) after inoculating the test preparation; conditions: Ausgangskeimzahl 2,7 x 10^5 KBE/ml
Text: as §1, §2
(§5) Die Ausgangskeimzahl wurde im Oberflächenverfahren mit Hilfe eines Spiralplaters (Fa. Meintrup, Lähden) ermittelt und ist im einzelnen den Tabellen 1-12 zu entnehmen.
as §3
(§6) Die anschließende Keimzahlbestimmung erfolgte im Oberflächenverfahren durch Ausspiralisieren eines […] Aliquots auf Caso-Agar bzw. für H. influenzae auf Kochblut-Agar. Die Platten wurden bei 33±2°C für max. 4 Tage bebrütet. Die Nachweisgrenze des Verfahrens liegt bei 100 KBE/ml.

S.epidermidis [3] = experiment: as above; conditions: Ausgangskeimzahl 2,1 x 10^5 KBE/ml
Text: as §1, §2, §5, §3, §6

E.coli [4] = experiment: as above; conditions: Ausgangskeimzahl 2,7 x 10^5 KBE/ml
Text: as §1, §2, §5
as §3, with “Nach 2, 6, 8, 24, 32, 48 und 72 Stunden wurde dann der jeweilige Testansatz 10 Minuten bei 3000 rpm abzentrifugiert.” left out
as §6

Sc. pneumoniae [5] = experiment: as above; conditions: Ausgangskeimzahl 3,7 x 10^5 KBE/ml
Text: as §1, §2, §5
as §3, with “Nach 2, 6, 8, 24, 32, 48 und 72 Stunden wurde dann der jeweilige Testansatz 10 Minuten bei 3000 rpm abzentrifugiert.” left out
as §6

S.aureus [6] = experiment: as above; conditions: Ausgangskeimzahl 2,6 x 10^5 KBE/ml
Text: as §1, §2, §5
as §3, with “Nach 2, 6, 8, 24, 32, 48 und 72 Stunden wurde dann der jeweilige Testansatz 10 Minuten bei 3000 rpm abzentrifugiert.” left out
as §6

H.influenzae = experiment: as above; conditions: Ausgangskeimzahl 2,8 x 10^5 KBE/ml
Text: as §1, §2, §5
as §3, with “Nach 2, 6, 8, 24, 32, 48 und 72 Stunden wurde dann der jeweilige Testansatz 10 Minuten bei 3000 rpm abzentrifugiert.” left out
as §6

E.coli [7] = experiment: Qualitative examination: enrichment of the inoculated test preparation in broth
Text: as §1, §2
as §3, with “Nach 2, 6, 8, 24, 32, 48 und 72 Stunden wurde dann der jeweilige Testansatz 10 Minuten bei 3000 rpm abzentrifugiert.” left out
as §4

Sc. pneumoniae [8] = experiment: as above
Text: as §1, §2
as §3, with “Nach 2, 6, 8, 24, 32, 48 und 72 Stunden wurde dann der jeweilige Testansatz 10 Minuten bei 3000 rpm abzentrifugiert.” left out
as §4

S.aureus [9] = experiment: as above
Text: as §1, §2
as §3, with “Nach 2, 6, 8, 24, 32, 48 und 72 Stunden wurde dann der jeweilige Testansatz 10 Minuten bei 3000 rpm abzentrifugiert.” left out
as §4

S.epidermidis [10] = experiment: as above
Text: as §1, §2
as §3, with “Nach 2, 6, 8, 24, 32, 48 und 72 Stunden wurde dann der jeweilige Testansatz 10 Minuten bei 3000 rpm abzentrifugiert.” left out
as §4

In the case of `CCCCCCCCCCCC[N+](C)(C)Cc1ccccc1` [Benzalkoniumchlorid 0,005 Gew.-%, Benzododeciniumchlorid], the “Ergebnis der Reisolierung qualitiativ (+/-) nach Anreicherung” value (“Ergebnis der Reisolierung qualitiativ” below) (P.aeruginosa [1]; 2 h after inoculation) is reported as “-”, the “Ergebnis der Reisolierung qualitiativ” value (P.aeruginosa [1]; 4 h after inoculation) is reported as “-” and the “Ergebnis der Reisolierung qualitiativ” value (P.aeruginosa [1]; 6 h after inoculation) is reported as “-”. The “Ergebnis der Reisolierung qualitiativ” value (P.aeruginosa [1]; 8 h after inoculation) was “-”, the “Ergebnis der Reisolierung qualitiativ” value (P.aeruginosa [1]; 24 h after inoculation) was “-” and the “Ergebnis der Reisolierung qualitiativ” value (P.aeruginosa [1]; 32 h after inoculation) was “-”. The “Ergebnis der Reisolierung qualitiativ” value (P.aeruginosa [1]; 48 h after inoculation) was “-”, the “Ergebnis der Reisolierung qualitiativ” value (P.aeruginosa [1]; 72 h after inoculation) was “-” and the “Ergebnis der Reisolierung (in KBE/ml)” value (P.aeruginosa [2]; 2 h after inoculation) was <100 KBE/ml. For the same compound, the “Ergebnis der Reisolierung (in KBE/ml)” value (P.aeruginosa [2]; 4 h after inoculation) was <100 KBE/ml, the “Ergebnis der Reisolierung (in KBE/ml)” value (P.aeruginosa [2]; 6 h after inoculation) was <100 KBE/ml and the “Ergebnis der Reisolierung (in KBE/ml)” value (P.aeruginosa [2]; 8 h after inoculation) was <100 KBE/ml. For the same compound, the “Ergebnis der Reisolierung (in KBE/ml)” value (P.aeruginosa [2]; 24 h after inoculation) was <100 KBE/ml, the “Ergebnis der Reisolierung (in KBE/ml)” value (P.aeruginosa [2]; 32 h after inoculation) was <100 KBE/ml and the “Ergebnis der Reisolierung (in KBE/ml)” value (P.aeruginosa [2]; 48 h after inoculation) was <100 KBE/ml. For the same compound, the “Ergebnis der Reisolierung (in KBE/ml)” value (P.aeruginosa [2]; 72 h after inoculation) was <100 KBE/ml, the “Ergebnis der Reisolierung (in KBE/ml)” value (S.epidermidis [3]; 2 h after inoculation) was <100 KBE/ml and the “Ergebnis der Reisolierung (in KBE/ml)” value (S.epidermidis [3]; 4 h after inoculation) was <100 KBE/ml. The “Ergebnis der Reisolierung (in KBE/ml)” value (S.epidermidis [3]; 6 h after inoculation) was <100 KBE/ml, the “Ergebnis der Reisolierung (in KBE/ml)” value (S.epidermidis [3]; 8 h after inoculation) was <100 KBE/ml and the “Ergebnis der Reisolierung (in KBE/ml)” value (S.epidermidis [3]; 24 h after inoculation) was <100 KBE/ml. For the same compound, the “Ergebnis der Reisolierung (in KBE/ml)” value (S.epidermidis [3]; 32 h after inoculation) was <100 KBE/ml, the “Ergebnis der Reisolierung (in KBE/ml)” value (S.epidermidis [3]; 48 h after inoculation) was <100 KBE/ml and the “Ergebnis der Reisolierung (in KBE/ml)” value (S.epidermidis [3]; 72 h after inoculation) was <100 KBE/ml. For the same compound, the “Ergebnis der Reisolierung (in KBE/ml)” value (E.coli [4]; 2 h after inoculation) was <100 KBE/ml, the “Ergebnis der Reisolierung (in KBE/ml)” value (E.coli [4]; 4 h after inoculation) was <100 KBE/ml and the “Ergebnis der Reisolierung (in KBE/ml)” value (E.coli [4]; 6 h after inoculation) was <100 KBE/ml. For the same compound, the “Ergebnis der Reisolierung (in KBE/ml)” value (E.coli [4]; 8 h after inoculation) was <100 KBE/ml, the “Ergebnis der Reisolierung (in KBE/ml)” value (E.coli [4]; 24 h after inoculation) was <100 KBE/ml and the “Ergebnis der Reisolierung (in KBE/ml)” value (E.coli [4]; 32 h after inoculation) was <100 KBE/ml. For the same compound, the “Ergebnis der Reisolierung (in KBE/ml)” value (E.coli [4]; 48 h after inoculation) was <100 KBE/ml, the “Ergebnis der Reisolierung (in KBE/ml)” value (E.coli [4]; 72 h after inoculation) was <100 KBE/ml and the “Ergebnis der Reisolierung (in KBE/ml)” value (Sc. pneumoniae [5]; 2 h after inoculation) was <100 KBE/ml. The “Ergebnis der Reisolierung (in KBE/ml)” value (Sc. pneumoniae [5]; 4 h after inoculation) was <100 KBE/ml, the “Ergebnis der Reisolierung (in KBE/ml)” value (Sc. pneumoniae [5]; 6 h after inoculation) was <100 KBE/ml and the “Ergebnis der Reisolierung (in KBE/ml)” value (Sc. pneumoniae [5]; 8 h after inoculation) was <100 KBE/ml. The “Ergebnis der Reisolierung (in KBE/ml)” value (Sc. pneumoniae [5]; 24 h after inoculation) was <100 KBE/ml, the “Ergebnis der Reisolierung (in KBE/ml)” value (Sc. pneumoniae [5]; 32 h after inoculation) was <100 KBE/ml and the “Ergebnis der Reisolierung (in KBE/ml)” value (Sc. pneumoniae [5]; 48 h after inoculation) was <100 KBE/ml. For the same compound, the “Ergebnis der Reisolierung (in KBE/ml)” value (Sc. pneumoniae [5]; 72 h after inoculation) was <100 KBE/ml, the “Ergebnis der Reisolierung (in KBE/ml)” value (S.aureus [6]; 2 h after inoculation) was <100 KBE/ml and the “Ergebnis der Reisolierung (in KBE/ml)” value (S.aureus [6]; 4 h after inoculation) was <100 KBE/ml. The “Ergebnis der Reisolierung (in KBE/ml)” value (S.aureus [6]; 6 h after inoculation) was <100 KBE/ml, the “Ergebnis der Reisolierung (in KBE/ml)” value (S.aureus [6]; 8 h after inoculation) was <100 KBE/ml and the “Ergebnis der Reisolierung (in KBE/ml)” value (S.aureus [6]; 24 h after inoculation) was <100 KBE/ml. The “Ergebnis der Reisolierung (in KBE/ml)” value (S.aureus [6]; 32 h after inoculation) was <100 KBE/ml, the “Ergebnis der Reisolierung (in KBE/ml)” value (S.aureus [6]; 48 h after inoculation) was <100 KBE/ml and the “Ergebnis der Reisolierung (in KBE/ml)” value (S.aureus [6]; 72 h after inoculation) was <100 KBE/ml. The “Ergebnis der Reisolierung (in KBE/ml)” value (H.influenzae; 2 h after inoculation) was <100 KBE/ml, the “Ergebnis der Reisolierung (in KBE/ml)” value (H.influenzae; 4 h after inoculation) was <100 KBE/ml and the “Ergebnis der Reisolierung (in KBE/ml)” value (H.influenzae; 6 h after inoculation) was <100 KBE/ml. For the same compound, the “Ergebnis der Reisolierung (in KBE/ml)” value (H.influenzae; 8 h after inoculation) was <100 KBE/ml, the “Ergebnis der Reisolierung (in KBE/ml)” value (H.influenzae; 24 h after inoculation) was <100 KBE/ml and the “Ergebnis der Reisolierung (in KBE/ml)” value (H.influenzae; 32 h after inoculation) was <100 KBE/ml. For the same compound, the “Ergebnis der Reisolierung (in KBE/ml)” value (H.influenzae; 48 h after inoculation) was <100 KBE/ml, the “Ergebnis der Reisolierung (in KBE/ml)” value (H.influenzae; 72 h after inoculation) was <100 KBE/ml and the “Ergebnis der Reisolierung qualitiativ” value (E.coli [7]; 2 h after inoculation) was “-”. The “Ergebnis der Reisolierung qualitiativ” value (E.coli [7]; 4 h after inoculation) was “-”, the “Ergebnis der Reisolierung qualitiativ” value (E.coli [7]; 6 h after inoculation) was “-” and the “Ergebnis der Reisolierung qualitiativ” value (E.coli [7]; 8 h after inoculation) was “-”. For the same compound, the “Ergebnis der Reisolierung qualitiativ” value (E.coli [7]; 24 h after inoculation) was “-”, the “Ergebnis der Reisolierung qualitiativ” value (E.coli [7]; 32 h after inoculation) was “-” and the “Ergebnis der Reisolierung qualitiativ” value (E.coli [7]; 48 h after inoculation) was “-”. The “Ergebnis der Reisolierung qualitiativ” value (E.coli [7]; 72 h after inoculation) was “-”, the “Ergebnis der Reisolierung qualitiativ” value (Sc. pneumoniae [8]; 2 h after inoculation) was “-” and the “Ergebnis der Reisolierung qualitiativ” value (Sc. pneumoniae [8]; 4 h after inoculation) was “-”. The “Ergebnis der Reisolierung qualitiativ” value (Sc. pneumoniae [8]; 6 h after inoculation) was “-”, the “Ergebnis der Reisolierung qualitiativ” value (Sc. pneumoniae [8]; 8 h after inoculation) was “-” and the “Ergebnis der Reisolierung qualitiativ” value (Sc. pneumoniae [8]; 24 h after inoculation) was “-”. For the same compound, the “Ergebnis der Reisolierung qualitiativ” value (Sc. pneumoniae [8]; 32 h after inoculation) was “-”, the “Ergebnis der Reisolierung qualitiativ” value (Sc. pneumoniae [8]; 48 h after inoculation) was “-” and the “Ergebnis der Reisolierung qualitiativ” value (Sc. pneumoniae [8]; 72 h after inoculation) was “-”. The “Ergebnis der Reisolierung qualitiativ” value (S.aureus [9]; 2 h after inoculation) was “-”, the “Ergebnis der Reisolierung qualitiativ” value (S.aureus [9]; 4 h after inoculation) was “-” and the “Ergebnis der Reisolierung qualitiativ” value (S.aureus [9]; 6 h after inoculation) was “-”. The “Ergebnis der Reisolierung qualitiativ” value (S.aureus [9]; 8 h after inoculation) was “-”, the “Ergebnis der Reisolierung qualitiativ” value (S.aureus [9]; 24 h after inoculation) was “-” and the “Ergebnis der Reisolierung qualitiativ” value (S.aureus [9]; 32 h after inoculation) was “-”. For the same compound, the “Ergebnis der Reisolierung qualitiativ” value (S.aureus [9]; 48 h after inoculation) was “-”, the “Ergebnis der Reisolierung qualitiativ” value (S.aureus [9]; 72 h after inoculation) was “-” and the “Ergebnis der Reisolierung qualitiativ” value (S.epidermidis [10]; 2 h after inoculation) was “-”. The “Ergebnis der Reisolierung qualitiativ” value (S.epidermidis [10]; 4 h after inoculation) was “-”, the “Ergebnis der Reisolierung qualitiativ” value (S.epidermidis [10]; 6 h after inoculation) was “-” and the “Ergebnis der Reisolierung qualitiativ” value (S.epidermidis [10]; 8 h after inoculation) was “-”. The “Ergebnis der Reisolierung qualitiativ” value (S.epidermidis [10]; 24 h after inoculation) was “-”, the “Ergebnis der Reisolierung qualitiativ” value (S.epidermidis [10]; 32 h after inoculation) was “-” and the “Ergebnis der Reisolierung qualitiativ” value (S.epidermidis [10]; 48 h after inoculation) was “-”. For the same compound, the “Ergebnis der Reisolierung qualitiativ” value (S.epidermidis [10]; 72 h after inoculation) was “-”.
